Experimental data published in the supplement of paper PMC10307832.

Assays:
Experiment in all cases: relative viability (nuclei count vs DMSO), 5 days (fraction); higher = more cells survive
[1] = compound: C1CC(C1)(C(=O)O)C(=O)O.[NH2-].[NH2-].[Pt+2] [Carboplatin] + CC(=O)Nc1cccc(-n2c(=O)n(C3CC3)c(=O)c3c(Nc4ccc(I)cc4F)n(C)c(=O)c(C)c32)c1 [Trametinib] (partner 0.02 µM)
Summary of the method: (§1)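 Medians of duplicate plates are given as relative viability. That measure is the nuclei count in treated wells divided by the count in vehicle wells. Counts were taken on 4× images of lung cancer cell lines in 1536-well plates, 5 days after pin-tool dosing the day after seeding with one drug alone or a fixed anchor-drug dose plus five library-drug doses (not always all listed) in √10 steps.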

[2] = compound: C1CC(C1)(C(=O)O)C(=O)O.[NH2-].[NH2-].[Pt+2] [Carboplatin] + Nc1nc2[nH]cc(CCc3ccc(C(=O)N[C@@H](CCC(=O)O)C(=O)O)cc3)c2c(=O)[nH]1 [Pemetrexed] (partner 0.2 µM)
Summary of the method: as §1

[3] = compound: CC[C@H](C)N1C=C(C2=C(C=C(C=C21)C3=CN=C(C=C3)N4CCNCC4)C(=O)NCC5=C(C=C(NC5=O)C)C)C [GSK126] + CCNC(=O)c1noc(-c2cc(C(C)C)c(O)cc2O)c1-c1ccc(CN2CCOCC2)cc1 [Luminespib] (partner 0.01 µM)
Summary of the method: as §1

[4] = compound: CC[C@H](C)N1C=C(C2=C(C=C(C=C21)C3=CN=C(C=C3)N4CCNCC4)C(=O)NCC5=C(C=C(NC5=O)C)C)C [GSK126] + NC(=O)Nc1cc(-c2cccc(F)c2)sc1C(=O)N[C@H]1CCCNC1 [AZD7762] (partner 0.2 µM)
Summary of the method: as §1

Cell Line | relative viability ([1]; first compound 0.08 µM) | relative viability ([1]; first compound 0.253 µM) | relative viability ([1]; first compound 0.8 µM) | relative viability ([1]; first compound 2.53 µM) | relative viability ([1]; first compound 8 µM) | relative viability ([2]; first compound 0.08 µM) | relative viability ([2]; first compound 0.253 µM) | relative viability ([2]; first compound 0.8 µM) | relative viability ([2]; first compound 2.53 µM) | relative viability ([2]; first compound 8 µM) | relative viability ([3]; first compound 0.08 µM) | relative viability ([3]; first compound 0.253 µM) | relative viability ([3]; first compound 0.8 µM) | relative viability ([3]; first compound 2.53 µM) | relative viability ([3]; first compound 8 µM) | relative viability ([4]; first compound 0.08 µM) | relative viability ([4]; first compound 0.253 µM) | relative viability ([4]; first compound 0.8 µM) | relative viability ([4]; first compound 2.53 µM) | relative viability ([4]; first compound 8 µM)
CAL-12T | 0.385 | 0.352 | 0.299 | 0.33 | 0.365 | 1.21 | 1.34 | 1.13 | 1.12 | 1.14 | 0.605 | 0.552 | 0.45 | 0.496 | 0.636 | 0.751 | 0.562 | 0.622 | 0.554 | 0.589
NCI-H2170 | 0.911 | 1.02 | 0.966 | 0.814 | 0.717 | 0.246 | 0.252 | 0.265 | 0.286 | 0.236 | 0.655 | 0.924 | 0.595 | 0.546 | 0.722 | 0.951 | 0.966 | 0.823 | 0.86 | 0.815
SW 900 | 0.794 | 0.904 | 1.07 | 0.7 | 0.759 | 0.495 | 0.468 | 0.488 | 0.525 | 0.496 | 0.206 | 0.188 | 0.165 | 0.173 | 0.213 | 0.765 | 0.559 | 0.582 | 0.585 | 0.58
NCI-H1792 | 0.514 | 0.395 | 0.354 | 0.361 | 0.231 | 1.21 | 0.75 | 0.755 | 0.811 | 0.608 | 0.386 | 0.401 | 0.443 | 0.483 | 0.355 | 0.68 | 0.712 | 0.537 | 0.58 | 0.567
NCI-H2085 | 0.498 | 0.558 | 0.512 | 0.518 | 0.527 | 1.03 | 0.846 | 0.974 | 0.948 | 0.899 | 0.52 | 0.514 | 0.414 | 0.406 | 0.623 | 1.03 | 0.973 | 0.927 | 0.907 | 0.957
LCLC-103H | 0.703 | 0.703 | 0.68 | 0.689 | 0.654 | 0.448 | 0.479 | 0.468 | 0.517 | 0.474 | 1.16 | 0.931 | 0.908 | 1.01 | 0.994 | 0.847 | 0.86 | 0.786 | 0.778 | 0.843
EKVX | 0.324 | 0.342 | 0.332 | 0.359 | 0.327 | 0.38 | 0.342 | 0.402 | 0.296 | 0.329 | 0.842 | 0.878 | 0.856 | 0.836 | 0.896 | 0.648 | 0.747 | 0.753 | 0.787 | 0.672
201T | 0.833 | 0.693 | 0.699 | 0.714 | 0.694 | 0.362 | 0.343 | 0.344 | 0.36 | 0.327 | 1.01 | 1.05 | 1.08 | 1.12 | 1.2 | 0.704 | 0.622 | 0.617 | 0.65 | 0.567
